Where a SMILES comes first, the peptide text is derived from it. The star is where a group is joined. Cbz = O=C(OCc1ccccc1)*
Legend:
[1] = tested on: ERCC1 protein isoforms; experiment: Western blot of ERCC1 protein isoforms after proteasome inhibition; format: cell-based, human; conditions: 2 μM for 24 h
Protocol: Proteins were extracted by lysis in RIPA buffer (50 mM Tris, 150 mM NaCl, 5 mM EDTA, 0.5% sodium deoxycholic acid, 0.5% NP-40, 0.1% SDS) supplemented with a protease inhibitor cocktail (Complete; Roche Molecular). For nucleus and cytoplasm protein, a first extraction and separation was done with a buffer containing 10 mM HEPES, 10 mM KCl, 1 mM DTT, 1 mM PMSF and protease inhibitor cocktail supplemented with 0.3% NP40. The nucleus fraction was next resuspended in a buffer containing 20 mM HEPES and 400 mM NaCl. Protein were then separated by SDS-PAGE and transferred to nitrocellulose membranes by the iBlot® 7-Minute Blotting System (Invitrogen). Blots were incubated with primary and secondary peroxidase-conjugated antibodies and chemiluminescent detection was done using the Dura HRP Substrate (Thermo scientific).
For proteasome inhibition, cells were treated with MG132 (Merck) at 2 μM for 24 h.

[2] = tested on: cell lines without ERCC1-202 isoform expression (A549 ERCC1-deficient); experiment: Cell cycle / DNA content by flow cytometry after cisplatin; format: cell-based, human; conditions: 30 and 300 nM for 48 hours
Protocol: To study effect of cisplatin on cell cycle arrest, cells were treated with 30 nM or 300 nM of cisplatin for 48 h. For high DNA content analysis, cells were blocked in G2/M cell cycle phase with Karyomax colcemid solution (Gibco-Invitrogen) at 0.1 μg/ml for 6 h.
DNA content was determined in ethanol-fixed cells, stained with propidium iodide and analyzed using a Becton Dickinson FACScalibur flow cytometer and the CellQuest Pro software.

| SMILES | ERCC1 isoform protein expression level after proteasome inhibition [1] | cells blocked in G2/M cell cycle phase [2] |
| --- | --- | --- |
| CC(C)C[C@@H](C=O)NC(=O)[C@H](CC(C)C)NC(=O)[C@H](CC(C)C)NC(=O)OCc1ccccc1 [MG132] (Cbz-Leu-Leu-Leu-aldehyde) | increase in ERCC1-201, -203 and -204 expression level |  |
| N.N.[Cl][Pt][Cl] [cisplatin] |  | 60-80% |
